According to patent publication US10131649B2, “Bicyclic compounds as pest control agents” (BAYER CROPSCIENCE AKTIENGESELLSCHAFT, priority 2014, dated 2018):
Like-named read-outs stand apart in the source and are kept apart here.

What was measured:
[1] = log P by HPLC on reversed-phase columns (OECD Guideline 117), [a] acidic pH 2.7, [b] neutral pH 7.8; assay type: physicochemical; details: reversed-phase (C18) HPLC column
Experimental: The log P values were determined in accordance with OECD Guideline 117 (EC Directive 92/69/EEC) by HPLC (high-performance liquid chromatography) using reversed-phase (RP) columns (C18), by the following methods:
[a] The LC-MS determination in the acidic range is carried out at pH 2.7 with 0.1% aqueous formic acid and acetonitrile (contains 0.1% formic acid) as eluents; linear gradient from 10% acetonitrile to 95% acetonitrile.
[b] LC-MS determination in the neutral range is effected at pH 7.8 with 0.001 molar aqueous ammonium hydrogencarbonate solution and acetonitrile as eluents; linear gradient from 10% acetonitrile to 95% acetonitrile.
Calibration is carried out using unbranched alkan-2-ones (having 3 to 16 carbon atoms) with known log P values (log P values determined on the basis of the retention times by linear interpolation between two successive alkanones).

[2] = system: green peach aphid (Myzus persicae); test: Myzus persicae spray test (Chinese cabbage leaf discs); assay type: in vivo; details: foliar, 144 h, read-out: efficacy in %
Experimental: Myzus persicae—Spray Test
Solvent: • 78 parts by weight of acetone • 1.5 parts by weight of dimethylformamide
Emulsifier: alkylaryl polyglycol ether
To produce a suitable preparation of active compound, 1 part by weight of active compound is dissolved using the specified parts by weight of solvent and made up with water containing an emulsifier concentration of 1000 ppm until the desired concentration is attained. To produce further test concentrations, the formulation is diluted with emulsifier-containing water.
Discs of Chinese cabbage leaves (Brassica pekinensis) infested by all stages of the green peach aphid (Myzus persicae) are sprayed with an active compound formulation of the desired concentration.
After 6 days, the efficacy in % is determined. 100% means that all the aphids have been killed; 0% means that no aphids have been killed.

[3] = acidic pH 2.7, read-out: logP[a]
[4] = neutral pH 7.8, read-out: logP[b]

Row | Compound | chromatographic logP [1, 3] | chromatographic logP [1, 4] | pest or weed control at 500 g/ha [2] | pest or weed control at 100 g/ha [2] | pest or weed control at 500 g/ha ([2]; application rate 500 g/ha, after 6 days, Chinese cabbage leaf discs, 100% = all aphids killed)
1 | FC(F)(F)c1cnn(-c2ccc3nn(-c4cccnc4)cc3c2)c1 [Example 55, 2-(3-Pyridyl)-5-[4-(trifluoromethyl)pyrazol-1-yl]indazole] | 2.77 | 2.74 | 90% | – | –
2 | Cc1cc(F)c(NC(=O)c2ccc3nn(-c4cccnc4)cc3c2)cc1SCC(F)(F)F [Example 91] | 3.22 | 3.12 | – | 90% | –
3 | Clc1ccnc(-c2ccc3nn(-c4cccnc4)cc3c2)c1 [Example 69] | 2.62 | 2.66 | 100% | – | –
4 | Cc1ccc(C(=O)N(C)c2ccc3nn(-c4cccnc4)cc3c2)cc1[S+]([O-])CC(F)(F)F (stereo not shown) [Example 115] | – | – | 100% | – | –
5 | CSCC(C)C(=O)N(C)c1ccc2nn(-c3cccnc3)cc2c1 (stereo not shown) [Example 110] | – | – | 90% | – | –
6 | CCSc1ccc(-c2ccc3nn(-c4cccnc4)cc3c2)nc1 [Example 80] | 2.87 | 3.03 | 100% | – | –
7 | Cc1ccc(C(=O)N(C)c2ccc3nn(-c4cncc(F)c4)cc3c2)cc1[S+]([O-])CC(F)(F)F (stereo not shown) [Example 114] | – | – | 90% | – | –
8 | Cc1ccc(-c2ccc3nn(-c4cccnc4)cc3c2)cc1[S+]([O-])CC(F)(F)F (stereo not shown) [Example 53, 5-[4-Methyl-3-(2,2,2-trifluoroethylsulphinyl)phenyl]-2-(3-pyridyl)indazole] | 2.72 | 2.68 | 90% | – | –
9 | O=C(c1ccc2nn(-c3cccnc3)cc2c1)N1CCCC1 [Example 88] | 1.43 | 1.48 | 100% | – | –
10 | CON(C)C(=O)c1ccc2nn(-c3cncnc3)cc2c1 [Example 32] | – | – | 100% | – | –
11 | CSCC(C)C(=O)N(C)c1ccc2nn(-c3cnn(C)c3)cc2c1 (stereo not shown) [Example 105, N,2-Dimethyl-N-(2-(1-methyl-1H-pyrazol-4-yl)-2H-indazol-5-yl)-3-(methylthio) propanamide] | – | – | – | – | 90%
12 | CN(C(=O)CCS(C)(=O)=O)c1ccc2nn(-c3cncc(F)c3)cc2c1 [Example 128] | – | – | 100% | – | –
13 | CN(C(=O)CCS(C)(=O)=O)c1ccc2nn(-c3cccnc3)cc2c1 [Example 129] | – | – | 90% | – | –
14 | c1ccc(-c2ccc3nn(-c4cccnc4)cc3c2)nc1 [Example 59, 5-(2-Pyridyl)-2-(3-pyridyl)indazole] | 1.13 | 1.93 | – | 90% | –
15 | CCN(CC)C(=O)c1ccc2nn(-c3cccnc3)cc2c1 [Example 89] | 1.63 | 1.65 | 100% | – | –
16 | CSCCNC(=O)c1ccc2nn(-c3cccnc3)cc2c1 [Example 85] | 1.45 | 1.5 | 90% | – | –
17 | CSCn1cc(-c2ccc3nn(-c4cccnc4)cc3c2)cn1 [Example 63] | 2.02 | – | 90% | – | –
18 | Cc1cc(F)c(-c2ccc3nn(-c4cccnc4)cc3c2)cc1SCC(F)(F)F [Example 49, 5-[2-Fluoro-4-methyl-5-(2,2,2-trifluoroethylsulphanyl)phenyl]-2-(3-pyridyl)indazole] | 4.23 | 4.11 | 90% | – | –
19 | Cc1cc(F)c(NC(=O)c2ccc3nn(-c4cccnc4)cc3c2)cc1[S+]([O-])CC(F)(F)F (stereo not shown) [Example 96] | 2.19 | 2.14 | 100% | – | –
20 | c1cncc(-n2cc3cc(-c4cn[nH]c4)ccc3n2)c1 [Example 98, 5-(1H-Pyrazol-4-yl)-2-(pyridin-3-yl)-2H-indazole] | 1.27 | 1.3 | – | – | –
21 | Cc1cc(C)c(SCC(F)(F)F)cc1NC(=O)c1ccc2nn(-c3cccnc3)cc2c1 [Example 81, N-{2,4-Dimethyl-5-[(2,2,2-trifluoroethyl)sulphanyl]phenyl}-2-(pyridin-3-yl)-2H-indazole-5-carboxamide] | 3.15 | 3.12 | 90% | – | –
22 | CSCCC(=O)N(C)c1ccc2nn(-c3cncc(F)c3)cc2c1 [Example 108] | – | – | 100% | – | –
23 | O=C(c1ccc2nn(-c3cccnc3)cc2c1)N1CCSCC1 [Example 92] | 1.5 | 1.58 | 100% | – | –
24 | Cn1cc(-n2cc3cc(C(=O)NCC(F)(F)F)ccc3n2)cn1 [Example 37] | – | – | 90% | – | –
25 | Cn1cc(-c2ccc3nn(-c4cccnc4)cc3c2)cn1 [Example 58, 5-(1-Methylpyrazol-4-yl)-2-(3-pyridyl)indazole] | 1.51 | 1.57 | 90% | – | –
26 | CN(C(=O)CC(C)(F)F)c1ccc2nn(-c3cccnc3)cc2c1 [Example 112] | – | – | 100% | – | –
27 | CCSc1cccnc1-c1ccc2nn(-c3cccnc3)cc2c1 [Example 77] | 2.53 | 1.93 | 90% | – | –
28 | O=C(NCC(F)(F)F)c1ccc2nn(-c3cncnc3)cc2c1 [Example 26] | – | – | – | 90% | –

Row | Compound | chromatographic logP [1, 3] | chromatographic logP [1, 4] | pest or weed control at 500 g/ha [2] | pest or weed control at 100 g/ha [2] | pest or weed control at 500 g/ha ([2]; application rate 500 g/ha, after 6 days, Chinese cabbage leaf discs, 100% = all aphids killed)
29 | O=C(c1ccc2nn(-c3cccnc3)cc2c1)N1CCOCC1 [Example 87] | 1.14 | 1.16 | 100% | – | –
30 | Cc1ccc(C(=O)N(C)c2ccc3nn(-c4cnn(C)c4)cc3c2)cc1[S+]([O-])CC(F)(F)F (stereo not shown) [Example 116] | – | – | 90% | – | –
31 | CNC(=O)c1ccc2nn(-c3cncnc3)cc2c1 [Example 31] | – | – | 90% | – | –
32 | O=C(NCC(F)(F)F)c1ccc2nn(-c3cncc(F)c3)cc2c1 [Example 19] | – | – | 90% | – | –
33 | C[S+]([O-])Cn1cc(-c2ccc3nn(-c4cccnc4)cc3c2)cn1 (stereo not shown) [Example 74] | 1.17 | 1.19 | 100% | – | –
34 | CC(CS(C)(=O)=O)C(=O)N(C)c1ccc2nn(-c3cccnc3)cc2c1 (stereo not shown) [Example 130] | – | – | 90% | – | –
35 | c1cnc(-c2ccc3nn(-c4cccnc4)cc3c2)nc1 [Example 60, 2-(3-Pyridyl)-5-pyrimidin-2-yl-indazole] | 1.72 | 1.73 | 90% | – | –
36 | Cc1ccnc(-c2ccc3nn(-c4cccnc4)cc3c2)c1 [Example 66] | 0.97 | 2.2 | 90% | – | –
37 | CN(CC(F)F)C(=O)c1ccc2nn(-c3cccnc3)cc2c1 [Example 86] | 1.55 | 1.55 | 100% | – | –
38 | CN(C(=O)CC(C)(F)F)c1ccc2nn(-c3cncc(F)c3)cc2c1 [Example 113] | – | – | 90% | – | –
39 | CN(C(=O)CC[S+](C)[O-])c1ccc2nn(-c3cccnc3)cc2c1 (stereo not shown) [Example 123] | – | – | 90% | – | –
40 | Fc1ccnc(-c2ccc3nn(-c4cccnc4)cc3c2)c1 [Example 101] | 2.04 | 2.21 | 90% | – | –
41 | Cn1ccc(-c2ccc3nn(-c4cccnc4)cc3c2)n1 [Example 71] | 1.58 | – | 90% | – | –
42 | CC(C[S+](C)[O-])C(=O)N(C)c1ccc2nn(-c3cncc(F)c3)cc2c1 (stereo not shown) [Example 122] | – | – | 100% | – | –
43 | O=C(c1ccc2nn(-c3cccnc3)cc2c1)N1CCS(=O)(=O)CC1 [Example 93] | 0.87 | 1.03 | – | – | –
44 | Cc1cccc(-c2ccc3nn(-c4cccnc4)cc3c2)n1 [Example 64] | 1.06 | 2.41 | 90% | – | –
45 | CN(C)C(=O)c1ccc2nn(-c3cncc(F)c3)cc2c1 [Example 18] | – | – | 90% | – | –
46 | Cc1cc(F)c(C(=O)N(C)c2ccc3nn(-c4cncc(F)c4)cc3c2)cc1[S+]([O-])CC(F)(F)F (stereo not shown) [Example 118] | – | – | 90% | – | –
47 | CN(C)C(=O)c1ccc2nn(-c3cncnc3)cc2c1 [Example 27] | – | – | 90% | – | –
48 | CSCC(C)C(=O)N(C)c1ccc2nn(-c3cncc(F)c3)cc2c1 (stereo not shown) [Example 109] | – | – | 100% | – | –
49 | CN(C)C(=O)c1ccc2nn(-c3cccnc3)cc2c1 [Example 1] | – | – | 100% | – | –
50 | O=C(NCC(F)F)c1ccc2nn(-c3cncnc3)cc2c1 [Example 30] | – | – | 100% | – | –
51 | CC(F)(F)CNC(=O)c1ccc2nn(-c3cncnc3)cc2c1 [Example 33] | – | – | 100% | – | –
52 | CN(C(=O)CC[S+](C)[O-])c1ccc2nn(-c3cncc(F)c3)cc2c1 (stereo not shown) [Example 121] | – | – | 100% | – | –
53 | CSCCC(=O)N(C)c1ccc2nn(-c3cccnc3)cc2c1 [Example 111] | – | – | 90% | – | –
54 | O=C(NCC(F)(F)F)c1ccc2nn(-c3cccnc3)cc2c1 [Example 3] | – | – | 100% | – | –
55 | CCNC(=O)c1ccc2nn(-c3cncnc3)cc2c1 [Example 29] | – | – | – | 90% | –
